Four compounds from PMC12736008, “New Dimethylpyridine-3-Carboxamide Derivatives as MMP-13 Inhibitors with Anticancer Activity” (Molecules, 2025) can be followed below.

For series [1], the system named is A375 (melanoma) cells. The series is described as follows: MTT assay, A375. In kind it is cell-based, human. As to conditions: for reduction in cancer cell viability / anticancer potential (A375): MTT, 24 h, 0.004 mM to 0.5 mM. From the text: (§1) As mentioned earlier, MMP-13 is overexpressed and functionally significant in various cancers, including melanoma and colorectal carcinoma. For instance, high MMP-13 levels have been correlated with metastasis and poor survival in melanoma patients. In colorectal cancer, elevated MMP-13 activity has been observed in tumors compared to normal mucosa, and its expression is associated with a worse prognosis. Based on computational studies, four out of the eleven designed compounds showing the most promising predicted activity against MMP-13 were selected for biological evaluation. For the MTT assay, NHDF cells were used as the healthy reference cell line, while A375 (melanoma) and HT-29 (colorectal adenocarcinoma cancer) cell lines were chosen as cancer models.
(§2) Experiments were conducted using two cancer cell lines and, as a control, a normal human dermal fibroblasts (NHDF; ATCC PCS-201-012). The A375 cell line (human melanoma, ATCC CRL-1619), and HT-29 cell line (human colorectal adenocarcinoma, ATCC HTB-38) were cultured in DMEM (Dulbecco’s Modified Eagle Medium, Institute of Immunology and Experimental Therapy (IITD), Wrocław, Poland) supplemented with 1% antibiotics (10 U/mL penicillin and 10 µg/mL streptomycin, Sigma-Aldrich, St Louis, MO, USA), 1% glutamine (Sigma-Aldrich, St Louis, MO, USA) and 10% fetal bovine serum (FBS, Gibco, Grand Island, NY, USA). For NHDF cultures, α-MEM (α-Minimum Essentials Medium, Institute of Immunology and Experimental Therapy (IITD), Poland) was used with the same supplement combination as for the cancer cell lines. All cells were maintained in a humidified incubator (INCO 105, Memmert GmbH, Schwabach, Germany) at 37 °C with 5% CO2 and 95% humidity. Cells were passaged routinely by trypsinization (twice a week). For the MTT (3-(4,5-simethylthiazol-2,5-diphenyltetrazolinum bromide), Sigma, St. Louis, MO, USA) assay, cells were used after 2–4 passages, when they reached approximately 80% confluence.
(§3) All tested compounds were dissolved in DMSO to obtain stock solutions with a final concentration of 50 mM (3a, 3b, 3e), 40 mM (3f, 3g, 3i, 3j), and 35 mM (3h, 3k). […] In the next step, 10 µL of each stock solution was added to 990 µL of supplemented medium.
(§4) The MTT assay was performed in 96-well plates, with a seeding density of 1 × 10^4 cells per well. All cell lines were incubated for 24 h in their respective media: α-MEM for (NHDF cells) and DMEM for (A375 and HT-29) cells. After incubation, the medium was removed and replaced with fresh medium containing the tested compounds at concentrations ranging from 0.004 mM to 0.5 mM. […] Absorbance was measured spectrophotometrically at a wavelength of 570 nm using a BioTek SYNERGY H1 microplate reader (Agilent, Santa Clara, CA, USA).
A general note: Tetrazolium assays rely on reduction of a dye to a coloured formazan, in cell work by metabolically active cells.

Series [2] has as its target T1, MMP-13 (Homo sapiens, UniProt P45452).
T1 construct: purchased Abcam ab139451
The series is described as follows: MMP-13 inhibitor screening assay kit (fluorometric). In kind it is biochemical. As to conditions: single-point screening; tested compounds 1.8 to 4.6 µM. The method, then: (§5) The inhibitory activity of the designed compounds against MMP-13 was evaluated using a commercial fluorometric MMP-13 inhibitor assay kit (Abcam, Cambridge, UK), following the manufacturer’s protocol. Solutions of the tested compounds were prepared at concentrations ranging from 1.8 to 4.6 µM. N-isobutyl-N-(4-methoxyphenylsulfonyl)glycyl hydroxamic acid (NNGH), a broad-spectrum inhibitor of matrix metalloproteinases, was used as positive control. […] In parallel, MMP-8 inhibition assays were also conducted using the same concentrations of compounds 3b, 3c, 3d, and 3g.
(§6) It should be emphasized that these assays were performed as single-point screening experiments, optimized for rapid qualitative assessment rather than full kinetic characterization. Consequently, the observed differences in activity between MMP-13 and MMP-8 are indicative trends supporting the selectivity predicted by computational studies, including docking, molecular dynamics simulations, and binding free energy calculations, rather than providing definitive quantitative evidence.
(§7) The inhibitory activity of the tested compounds was evaluated using the MMP-13 inhibitor screening assay kit (fluorometric) (Abcam, ab139451). The assay performed according to the manufacturer’s instructions. The designed compounds were tested at concentrations ranging from 1.8 to 4.6 µM, to determine their inhibitory activity. […]

Series [3] addresses T2, MMP-8 (Homo sapiens, UniProt P22894).
T2 construct: purchased Abcam ab139453
The series is described as follows: MMP-8 inhibitory screening assay kit (fluorometric). In kind it is biochemical. As to conditions: single-point screening; same concentrations, 1.8 to 4.6 µM. The method, then:
as §5, §6, §7

A short description of series [4]: Solubility on preparing DMSO stock solutions. In kind it is physicochemical. As to conditions: dissolved to 30 mM. The method, then:
as §3

The test system of series [5] is NHDF cells. The series is described as follows: MTT assay, NHDF. In kind it is cell-based, human. As to conditions: 24 h, 0.004 mM to 0.5 mM.
Excerpt: as §1, §2, §3, §4

The nature of series [6]: MTT assay, NHDF. In kind it is cell-based, human. The note with it: human, NHDF cells (normal human dermal fibroblasts), 0.004 mM to 0.5 mM.
Excerpt: as §1, §2, §3, §4

T2 sequence (P22894 101-467): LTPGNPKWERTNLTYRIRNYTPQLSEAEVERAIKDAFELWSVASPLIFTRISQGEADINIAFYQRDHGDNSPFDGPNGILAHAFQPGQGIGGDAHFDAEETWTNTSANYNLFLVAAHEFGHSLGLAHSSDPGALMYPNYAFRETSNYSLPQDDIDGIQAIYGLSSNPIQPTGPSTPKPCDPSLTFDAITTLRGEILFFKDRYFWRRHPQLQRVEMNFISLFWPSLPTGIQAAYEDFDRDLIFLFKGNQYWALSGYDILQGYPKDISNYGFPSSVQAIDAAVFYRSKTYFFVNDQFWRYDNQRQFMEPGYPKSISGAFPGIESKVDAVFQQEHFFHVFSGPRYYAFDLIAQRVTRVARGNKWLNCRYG

Take `Cc1cc(C)c(C(=O)NCC(=O)NCc2ccccc2)c(S)n1` [Compound 3g, 4,6-dimethyl-N-[2-(benzylamino)-2-oxoethyl]-2-sulfanylpyridine-3-carboxamide]: the “reduction in cancer cell viability / anticancer potential (A375)” value in series [1] is recorded as “only moderate anticancer potential”. Further, the MMP-13 activity inhibition entry in series [2] is recorded as “most pronounced inhibitory effect”. Further, the MMP-8 activity inhibition entry in series [3] is reported as “slight inhibitory activity”.

As to `Cc1cc(C)c(C(=O)NCC(=O)NCc2ccc(Cl)cc2)c(S)n1` [Compound 3c, N-{2-[(4-chlorobenzyl)amino]-2-oxoethyl}-4,6-dimethyl-2-sulfanylpyridine-3-carboxamide], in series [1], the “reduction in cancer cell viability / anticancer potential (A375)” value was “strongest reduction in cancer cell viability”. For the same compound, the solubility result in series [4] is listed as “low solubility”. Also, the “toxicity toward healthy NHDF cells” value in series [5] was “highest toxicity toward healthy NHDF”.

As usually defined, the viability is the share of living cells, or the viability signal relative to a control. In the case of `Cc1cc(C)c(C(=O)NCC(=O)NCc2ccccc2Cl)c(S)n1` [Compound 3d, N-{2-[(2-chlorobenzyl)amino]-2-oxoethyl}-4,6-dimethyl-2-sulfanylpyridine-3-carboxamide], the “reduction in cancer cell viability / anticancer potential (A375)” value in series [1] was “strongest reduction in cancer cell viability”. For the same compound, the solubility result in series [4] is “low solubility”. In addition, the viability at 24 h in series [6] is > 63%. Besides, the “toxicity toward healthy NHDF cells” value in series [5] was “highest toxicity toward healthy NHDF”.

Regarding `Cc1cc(C)c(C(=O)NCC(=O)NCc2ccc(Oc3ccccc3)cc2)c(S)n1` [Compound 3b, 4,6-dimethyl-N-{2-[(4-phenoxybenzyl)amino]-2-oxoethyl}-2-sulfanylpyridine-3-carboxamide], the “selectivity ratio A375:NHDF” value in series [1] (at a concentration of 0.5 mM) is reported as 0.56. Besides, the “toxicity toward healthy NHDF cells” value in series [5] is “lowest toxicity toward healthy cells”.
